# Counter-ions that a name gives are not always drawn.
# What was measured:
# Assay type in all cases: cell-based
# HUT cell line = experiment: Cell inhibition assay (SRB cell viability), HUT; conditions: IC50 range class, 72 h, read-out: Inhibitor Activity vs HUT cell line
# Procedure: (§1) The corresponding cancer cell lines (U937, HCT 116 and HUT) growing in log phase were harvested and seeded at 1000 cells/well (200 ul final volume) into 96-well tissue culture plates. Following 24 h of cell growth cells were treated with compounds (final concentration of 20 uM). Plates were then re-incubated for a further 72 h before a sulphorhodamine B (SRB) cell viability assay was conducted according to Skehan 1990 J Natl Canc Inst 82, 1107-1112.
# (§2) Data were expressed as a percentage inhibition of the control, measured in the absence of inhibitor, as follows: — % inhibition=100−((S^i/S^o)×100) where S^i is the signal in the presence of inhibitor and S^o is the signal in the presence of DMSO.
# (§3) IC50 values were determined by non-linear regression analysis, after fitting the results of eight data points to the equation for sigmoidal dose response with variable slope (% activity against log concentration of compound), using Graphpad Prism software.
# U937 cell line = experiment: Cell inhibition assay (SRB cell viability), U937; conditions: Homo sapiens, U-937, IC50 range class, 72 h, read-out: Inhibitor Activity vs U937 cell line
# Procedure: as §1, §2, §3
# HCT 116 cell line = experiment: Cell inhibition assay (SRB cell viability), HCT 116; conditions: Homo sapiens, IC50 range class, 72 h, read-out: Inhibitor Activity vs HCT 116 cell line
# Procedure: as §1, §2, §3
IC50 (U937 cell line),IC50 (HCT 116 cell line),Compound,IC50 (HUT cell line)
1000 to 5000 nM,> 5 µM,"COc1cc2c(Oc3cccc(F)c3)ccnc2cc1OCC[C@H](N)C(=O)OC1CCCC1 [Example 5, (S)-2-Amino-4-[4-(3-fluoro-phenoxy)-6-methoxy-quinolin-7-yloxy]-butyric acid cyclopentyl ester]",1000 to 5000 nM
1000 to 5000 nM,> 5 µM,"COc1cc2c(Oc3ccccc3)ccnc2cc1OCC[C@H](N)C(=O)OC1CCCC1 [Example 7, (S)-2-Amino-4-(6-methoxy-4-phenoxy-quinolin-7-yloxy)-butyric acid cyclopentyl ester]",1000 to 5000 nM
1000 to 5000 nM,> 5 µM,"COc1ccc(Oc2ccnc3cc(OCC[C@H](N)C(=O)OC4CCCC4)c(OC)cc23)cc1 [Example 9, (S)-2-Amino-4-[6-methoxy-4-(4-methoxy-phenoxy)-quinolin-7-yloxy]-butyric acid cyclopentyl ester]",> 5000 nM
1000 to 5000 nM,1 to 5 µM,"COc1cc2c(Oc3ccc(-c4ccccc4)cc3)ccnc2cc1OCC[C@H](N)C(=O)OC1CCCC1 [Example 11, (S)-2-Amino-4-[4-(biphenyl-4-yloxy)-6-methoxy-quinolin-7-yloxy]-butyric acid cyclopentyl ester]",1000 to 5000 nM
1000 to 5000 nM,> 5 µM,"COc1cc2c(Oc3ccc4sc(C)nc4c3)ccnc2cc1OCC[C@H](N)C(=O)OC1CCCC1 [Example 12, (S)-2-Amino-4-[6-methoxy-4-(2-methyl-benzothiazol-5-yloxy)-quinolin-7-yloxy]-butyric acid cyclopentyl ester]",> 5000 nM
< 1000 nM,1 to 5 µM,"COc1cc2c(Oc3ccc4cccnc4c3)ccnc2cc1OCC[C@H](N)C(=O)OC1CCCC1 [Example 14, (S)-2-Amino-4-[6-methoxy-4-(quinolin-7-yloxy)-quinolin-7-yloxy]-butyric acid cyclopentyl ester]",1000 to 5000 nM
1000 to 5000 nM,> 5 µM,"COc1cc2c(Nc3cnn(CC(=O)Nc4ccccc4)c3)ccnc2cc1OCC[C@H](N)C(=O)OC1CCCC1 [Example 22, (S)-2-Amino-4-[6-methoxy-4-(1-phenylcarbamoylmethyl-1H-pyrazol-4-ylamino)-quinolin-7-yloxy]-butyric acid cyclopentyl ester]",> 5000 nM
> 5000 nM,> 5 µM,"COc1cc2c(Nc3cnn(CC(=O)Nc4cccc(F)c4)c3)ccnc2cc1OCC[C@H](N)C(=O)OC1CCCC1 [Example 24, (S)-2-Amino-4-(4-{1-[(3-fluoro-phenylcarbamoyl)-methyl]-1H-pyrazol-4-ylamino}-6-methoxy-quinolin-7-yloxy)-butyric acid cyclopentyl ester]",> 5000 nM
1000 to 5000 nM,1 to 5 µM,"COc1cc2c(Nc3cnc(NC(=O)c4ccccc4)nc3)ccnc2cc1OCC[C@H](N)C(=O)OC1CCCC1 [Example 25, (S)-2-Amino-4-[4-(2-benzoylamino-pyrimidin-5-ylamino)-6-methoxy-quinolin-7-yloxy]-butyric acid cyclopentyl ester]",1000 to 5000 nM
> 5000 nM,> 5 µM,"COc1cc2c(Nc3cnc(NC(=O)c4ccccc4)nc3)ncnc2cc1OCC[C@H](N)C(=O)OC1CCCC1 [Example 31, (S)-2-Amino-4-[4-(2-benzoylamino-pyrimidin-5-ylamino)-6-methoxy-quinazolin-7-yloxy]-butyric acid cyclopentyl ester]",> 5000 nM
1000 to 5000 nM,> 5 µM,"COc1cc2c(Nc3ccc(NC(=O)c4ccccc4)cc3)c(Br)cnc2cc1OCC[C@H](N)C(=O)OC1CCCC1 [Example 33, Dihydrochloride]",1000 to 5000 nM
< 1000 nM,1 to 5 µM,"COc1cc2c(Oc3ccc(NC(=O)c4ccccc4)cc3)ccnc2cc1OCC[C@H](NCC(C)C)C(=O)OC1CCCC1 [Example 37, (S)-4-[4-(4-Benzoylamino-phenoxy)-6-methoxy-quinolin-7-yloxy]-2-isobutylamino-butyric acid cyclopentyl ester]",1000 to 5000 nM
< 1000 nM,1 to 5 µM,"CCN[C@@H](CCOc1cc2nccc(Oc3ccc(NC(=O)c4ccccc4)cc3)c2cc1OC)C(=O)OC1CCCC1 [Example 38, (S)-4-[4-(4-Benzoylamino-phenoxy)-6-methoxy-quinolin-7-yloxy]-2-ethylamino-butyric acid cyclopentyl ester]",1000 to 5000 nM
1000 to 5000 nM,> 5 µM,"COc1cc2c(Oc3ccc(NC(=O)c4ccccc4)cc3)ccnc2cc1OCC[C@H](NC1CCCCC1)C(=O)OC1CCCC1 [Example 39, (S)-4-[4-(4-Benzoylamino-phenoxy)-6-methoxy-quinolin-7-yloxy]-2-cyclohexylamino-butyric acid cyclopentyl ester]",> 5000 nM
< 1000 nM,1 to 5 µM,"COc1cc2c(Oc3ccc(NC(=O)c4ccccc4)cc3)ccnc2cc1OCC[C@H](NCc1ccccc1)C(=O)OC1CCCC1 [Example 40, (S)-4-[4-(4-Benzoylamino-phenoxy)-6-methoxy-quinolin-7-yloxy]-2-benzylamino-butyric acid cyclopentyl ester]",1000 to 5000 nM
1000 to 5000 nM,1 to 5 µM,"CCN(CC)[C@@H](CCOc1cc2nccc(Oc3ccc(NC(=O)c4ccccc4)cc3)c2cc1OC)C(=O)OC1CCCC1 [Example 41, (S)-4-[4-(4-Benzoylamino-phenoxy)-6-methoxy-quinolin-7-yloxy]-2-diethylamino-butyric acid cyclopentyl ester]",1000 to 5000 nM
< 1000 nM,> 5 µM,"COc1cc2c(Oc3ccc(NC(=O)c4ccccc4)cc3)ccnc2cc1OCC[C@H](NC(=O)c1cccs1)C(=O)OC1CCCC1 [Example 44, (S)-4-[4-(4-Benzoylamino-phenoxy)-6-methoxy-quinolin-7-yloxy]-2-[(thiophene-2-carbonyl)-amino]-butyric acid cyclopentyl ester]",1000 to 5000 nM
< 1000 nM,1 to 5 µM,"COc1cccc(CC(=O)N[C@@H](CCOc2cc3nccc(Oc4ccc(NC(=O)c5ccccc5)cc4)c3cc2OC)C(=O)OC2CCCC2)c1 [Example 45, (S)-4-[4-(4-Benzoylamino-phenoxy)-6-methoxy-quinolin-7-yloxy]-2-[2-(3-methoxy-phenyl)-acetylamino]-butyric acid cyclopentyl ester]",< 1000 nM
< 1000 nM,< 1 µM,"COc1cc2c(Oc3ccc(NC(=O)c4ccccc4)cc3)ccnc2cc1OCC[C@H](N)C(=O)OC1CCC(C)C1 (stereo partly drawn) [Example 46, (S)-2-Amino-4-[4-(4-benzoylamino-phenoxy)-6-methoxy-quinolin-7-yloxy]-butyric acid 3-methyl-cyclopentyl ester]",< 1000 nM
< 1000 nM,< 1 µM,"COc1cc2c(Oc3ccc(NC(=O)c4ccccc4)cc3)ccnc2cc1OCC[C@H](N)C(=O)OC12CCC(CC1)C2 [Example 47, (S)-2-Amino-4-[4-(4-benzoylamino-phenoxy)-6-methoxy-quinolin-7-yloxy]-butyric acid bicyclo[2.2.1]hept-1-yl ester]",< 1000 nM
< 1000 nM,< 1 µM,"COc1cc2c(Oc3ccc(NC(=O)c4ccccc4)cc3)ccnc2cc1OCC[C@H](N)C(=O)OC1CCCCC1 [Example 48, (S)-2-Amino-4-[4-(4-benzoylamino-phenoxy)-6-methoxyquinolin-7-yloxy]-butyric acid cyclohexyl ester]",< 1000 nM
< 1000 nM,< 1 µM,"COc1cc2c(Oc3ccc(NC(=O)c4ccccc4)cc3)ccnc2cc1OCC[C@H](N)C(=O)OC1CCCC1C (stereo partly drawn) [Example 49, (S)-2-Amino-4-[4-(4-benzoylamino-phenoxy)-6-methoxy-quinolin-7-yloxy]-butyric acid 2-methyl-cyclopentyl ester]",< 1000 nM
< 1000 nM,< 1 µM,"CCOC(=O)[C@@H](N)CCOc1cc2nccc(Oc3ccc(NC(=O)c4ccccc4)cc3)c2cc1OC [Example 51, (S)-2-Amino-4-[4-(4-benzoylamino-phenoxy)-6-methoxy-quinolin-7-yloxy]-butyric acid Ethyl ester]",< 1000 nM
< 1000 nM,< 1 µM,"COc1cc2c(Oc3ccc(NC(=O)c4ccccc4)cc3)ccnc2cc1OCC[C@H](N)C(=O)OCc1ccccc1 [Example 52, (S)-2-Amino-4-[4-(4-benzoylamino-phenoxy)-6-methoxy-quinolin-7-yloxy]-butyric acid benzyl ester]",< 1000 nM
< 1000 nM,< 1 µM,"COc1cc2c(Oc3ccc(NC(=O)c4ccccc4F)cc3)ccnc2cc1OCC[C@H](N)C(=O)OC1CCCC1 [Example 61, (S)-2-Amino-4-{4-[4-(2-fluoro-benzoylamino)-phenoxy]-6-methoxy-quinolin-7-yloxy}-butyric acid cyclopentyl ester]",< 1000 nM
< 1000 nM,< 1 µM,"COc1cc2c(Oc3ccc(NC(=O)c4ccc(F)cc4)cc3)ccnc2cc1OCC[C@H](N)C(=O)OC1CCCC1 [Example 63, (S)-2-Amino-4-{4-[4-(4-fluoro-benzoylamino)-phenoxy]-6-methoxy-quinolin-7-yloxy}-butyric acid cyclopentyl ester]",< 1000 nM

# — US8148531B2 (Chroma Therapeutics Ltd., priority 2005, dated 2012)
